Experiments:
[1] = target: T1, DNA polymerase lambda (Mus musculus, UniProt Q9QXE2); experiment: Inhibition of mouse DNA polymerase lambda assessed as inhibition of incorporation of dTTP into poly(dA)/oligo(dT)18 after 60 mins
T1 sequence (Q9QXE2 whole entry): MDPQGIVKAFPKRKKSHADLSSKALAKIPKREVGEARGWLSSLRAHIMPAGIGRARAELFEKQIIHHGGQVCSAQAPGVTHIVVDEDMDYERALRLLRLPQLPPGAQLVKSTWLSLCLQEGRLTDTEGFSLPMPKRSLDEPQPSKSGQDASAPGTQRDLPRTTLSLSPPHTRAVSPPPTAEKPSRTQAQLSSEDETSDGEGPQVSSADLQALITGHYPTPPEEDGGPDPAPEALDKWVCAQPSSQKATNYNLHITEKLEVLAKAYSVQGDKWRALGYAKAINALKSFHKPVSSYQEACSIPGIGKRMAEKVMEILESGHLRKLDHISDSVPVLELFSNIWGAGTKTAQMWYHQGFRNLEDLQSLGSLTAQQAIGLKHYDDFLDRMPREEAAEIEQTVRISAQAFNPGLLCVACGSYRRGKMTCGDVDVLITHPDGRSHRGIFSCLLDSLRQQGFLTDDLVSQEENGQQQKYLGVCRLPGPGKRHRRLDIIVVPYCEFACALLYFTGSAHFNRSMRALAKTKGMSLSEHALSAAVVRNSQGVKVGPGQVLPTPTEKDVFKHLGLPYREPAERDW

[2] = target: Inosine-5'-monophosphate dehydrogenase 2 (Mus musculus, UniProt P24547); experiment: Inhibition of mouse IMP dehydrogenase 2 assessed as inhibition of incorporation of dTTP into poly(dA)/oligo(dT)18 after 60 mins
[3] = target: T7 RNA polymerase (Enterobacteria phage T7, UniProt P00573); experiment: Inhibition of T7 RNA polymerase assessed as inhibition of incorporation of dTTP into poly(dA)/oligo(dT)18 after 60 mins; parameters: species or system Escherichia phage T7
[4] = Inhibition of calf DNA primase of polymerase alpha assessed as inhibition of incorporation of dTTP into poly(dA)/oligo(dT)18 after 60 mins; parameters: species or system Bos taurus
[5] = target: Human immunodeficiency virus type 1 reverse transcriptase (Human immunodeficiency virus 1, UniProt Q72547); experiment: Inhibition of HIV-1 reverse transcriptase assessed as inhibition of incorporation of dTTP into poly(rA)/oligo(dT)18 after 60 mins
[6] = Inhibition of Thermus aquaticus DNA polymerase assessed as inhibition of incorporation of dTTP into poly(dA)/oligo(dT)18 after 60 mins
[7] = Inhibition of cauliflower DNA polymerase alpha assessed as inhibition of incorporation of dTTP into poly(dA)/oligo(dT)18 after 60 mins; parameters: species or system Brassica oleracea var. botrytis
[8] = Inhibition of fruit fly DNA polymerase epsilon assessed as inhibition of incorporation of dTTP into poly(dA)/oligo(dT)18 after 60 mins; parameters: species or system Drosophila melanogaster
[9] = Inhibition of cherry salmon DNA polymerase delta assessed as inhibition of incorporation of dTTP into poly(dA)/oligo(dT)18 after 60 mins; parameters: species or system Oncorhynchus masou
[10] = target: T2, DNA polymerase kappa (Homo sapiens, UniProt Q9UBT6); experiment: Inhibition of C-terminal His-6-tagged human DNA polymerase kappa expressed in Escherichia coli assessed as inhibition of incorporation of dTTP into poly(dA)/oligo(dT)18 after 60 mins
T2 sequence (Q9UBT6 whole entry): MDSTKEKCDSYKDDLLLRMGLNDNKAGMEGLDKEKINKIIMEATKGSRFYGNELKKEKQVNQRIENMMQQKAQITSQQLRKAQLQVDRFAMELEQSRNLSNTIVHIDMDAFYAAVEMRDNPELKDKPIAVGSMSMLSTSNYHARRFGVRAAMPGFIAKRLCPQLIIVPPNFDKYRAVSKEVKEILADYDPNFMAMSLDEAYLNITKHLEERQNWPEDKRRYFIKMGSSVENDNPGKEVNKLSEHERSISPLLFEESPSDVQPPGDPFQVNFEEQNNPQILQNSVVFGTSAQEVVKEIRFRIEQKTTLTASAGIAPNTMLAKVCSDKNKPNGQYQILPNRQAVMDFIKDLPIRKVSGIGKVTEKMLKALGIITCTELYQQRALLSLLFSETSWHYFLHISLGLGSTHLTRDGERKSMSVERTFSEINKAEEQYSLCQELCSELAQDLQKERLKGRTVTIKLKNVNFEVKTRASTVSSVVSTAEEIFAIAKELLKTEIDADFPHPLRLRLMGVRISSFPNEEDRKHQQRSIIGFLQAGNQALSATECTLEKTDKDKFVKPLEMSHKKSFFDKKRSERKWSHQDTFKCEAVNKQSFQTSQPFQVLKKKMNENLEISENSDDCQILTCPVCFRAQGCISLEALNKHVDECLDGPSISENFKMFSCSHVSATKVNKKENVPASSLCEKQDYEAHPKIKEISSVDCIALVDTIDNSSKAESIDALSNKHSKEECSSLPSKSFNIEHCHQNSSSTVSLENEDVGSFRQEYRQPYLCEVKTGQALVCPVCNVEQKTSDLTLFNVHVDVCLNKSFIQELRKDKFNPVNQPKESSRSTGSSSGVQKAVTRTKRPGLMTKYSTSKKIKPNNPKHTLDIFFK

[11] = target: DNA nucleotidylexotransferase (Bos taurus, UniProt P06526); experiment: Inhibition of calf thymus TdT assessed as inhibition of incorporation of dTTP into oligo(dT)18(3'OH) after 60 mins
[12] = Inhibition of calf thymus DNA polymerase alpha assessed as inhibition of incorporation of dTTP into poly(dA)/oligo(dT)18 after 60 mins; parameters: species or system Bos taurus
[13] = Inhibition of human His-tagged DNA polymerase gamma expressed in baculovirus assessed as inhibition of incorporation of dTTP into poly(dA)/oligo(dT)18 after 60 mins

Measured: IC50

Sequence of T7 RNA polymerase (P00573 whole entry): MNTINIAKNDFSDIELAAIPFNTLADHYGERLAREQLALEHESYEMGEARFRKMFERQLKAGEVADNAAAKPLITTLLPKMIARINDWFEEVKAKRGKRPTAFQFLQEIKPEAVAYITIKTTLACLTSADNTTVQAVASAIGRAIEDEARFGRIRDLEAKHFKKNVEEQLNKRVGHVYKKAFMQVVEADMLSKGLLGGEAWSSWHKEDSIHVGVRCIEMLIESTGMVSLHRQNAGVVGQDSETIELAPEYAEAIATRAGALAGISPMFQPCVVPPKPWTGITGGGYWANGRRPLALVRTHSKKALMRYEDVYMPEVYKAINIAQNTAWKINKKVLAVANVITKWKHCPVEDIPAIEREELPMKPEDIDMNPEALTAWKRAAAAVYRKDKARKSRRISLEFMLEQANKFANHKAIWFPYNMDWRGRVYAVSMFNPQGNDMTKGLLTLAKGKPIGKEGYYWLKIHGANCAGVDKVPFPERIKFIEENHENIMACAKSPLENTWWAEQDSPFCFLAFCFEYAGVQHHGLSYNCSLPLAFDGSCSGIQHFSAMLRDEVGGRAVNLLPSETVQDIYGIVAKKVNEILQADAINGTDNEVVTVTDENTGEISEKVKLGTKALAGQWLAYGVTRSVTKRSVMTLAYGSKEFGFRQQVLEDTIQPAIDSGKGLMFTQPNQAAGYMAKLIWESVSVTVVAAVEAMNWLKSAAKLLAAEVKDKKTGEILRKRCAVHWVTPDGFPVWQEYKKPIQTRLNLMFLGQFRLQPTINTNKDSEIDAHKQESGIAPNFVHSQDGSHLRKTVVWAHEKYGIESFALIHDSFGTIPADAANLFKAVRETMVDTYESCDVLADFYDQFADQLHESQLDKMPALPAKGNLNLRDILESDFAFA
Sequence of Inosine-5'-monophosphate dehydrogenase 2 (P24547 whole entry): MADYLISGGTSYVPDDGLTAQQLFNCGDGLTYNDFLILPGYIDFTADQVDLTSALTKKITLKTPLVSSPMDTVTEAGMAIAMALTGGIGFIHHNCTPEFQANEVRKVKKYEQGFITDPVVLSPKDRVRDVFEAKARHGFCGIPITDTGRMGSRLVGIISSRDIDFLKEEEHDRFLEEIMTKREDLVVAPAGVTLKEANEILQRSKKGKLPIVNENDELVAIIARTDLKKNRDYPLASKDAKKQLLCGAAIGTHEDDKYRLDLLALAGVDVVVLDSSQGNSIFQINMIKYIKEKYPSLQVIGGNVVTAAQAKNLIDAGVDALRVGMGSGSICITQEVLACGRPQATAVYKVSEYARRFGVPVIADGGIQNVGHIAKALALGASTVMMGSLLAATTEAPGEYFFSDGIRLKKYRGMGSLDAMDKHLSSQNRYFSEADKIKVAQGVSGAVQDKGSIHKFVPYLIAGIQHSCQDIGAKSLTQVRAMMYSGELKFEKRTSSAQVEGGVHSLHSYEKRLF
Sequence of DNA nucleotidylexotransferase (P06526 whole entry): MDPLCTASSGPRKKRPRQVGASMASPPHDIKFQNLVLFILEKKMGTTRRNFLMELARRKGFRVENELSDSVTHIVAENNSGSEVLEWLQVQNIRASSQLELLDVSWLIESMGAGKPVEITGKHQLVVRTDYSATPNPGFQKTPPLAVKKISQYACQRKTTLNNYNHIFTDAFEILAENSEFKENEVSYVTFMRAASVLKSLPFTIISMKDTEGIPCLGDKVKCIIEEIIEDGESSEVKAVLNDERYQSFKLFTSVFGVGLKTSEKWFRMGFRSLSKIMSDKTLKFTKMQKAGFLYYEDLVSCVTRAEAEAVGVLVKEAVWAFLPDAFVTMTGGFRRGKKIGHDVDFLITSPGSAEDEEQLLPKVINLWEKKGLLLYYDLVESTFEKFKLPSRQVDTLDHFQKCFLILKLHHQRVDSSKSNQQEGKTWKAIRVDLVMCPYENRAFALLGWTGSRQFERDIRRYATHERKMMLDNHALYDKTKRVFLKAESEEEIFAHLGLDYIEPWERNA

CCCC[C@@H](O)/C=C(C)/C=C/C=C\C(=O)N1CCCC1=O
> 200 µM: all assays above

CCCC[C@@H](O)/C=C(C)/C=C/C=C/C(=O)N1CCCC1=O [PECILOCIN]
> 200 µM: all assays above

CC(/C=C/CCC(=O)N1CCCC1=O)=C\C1CCCCO1 (configuration not stated)
> 200 µM: all assays above

CCCCC(=O)/C=C(C)/C=C/CCC(=O)N1CCCC1=O
> 200 µM: all assays above

— ChEMBL document CHEMBL3124747, “Formosusin A, a novel specific inhibitor of mammalian DNA polymerase β from the fungus Paecilomyces formosus” (Bioorg Med Chem, 2014)
